tested on: immortalized mice bone marrowmacrophages (IBMM); assay: Cytotoxicity, MTS method, IBMM cell; format: cell-based; conditions: Mus musculus, Bone marrow macrophage, MTS method; read-out: IC50(mM) IBMM cell
Text: (§1) The toxicity of compounds is detected with MTS method in the immortalized mice bone marrowmacrophages (IBMM), mice embryonic fibroblast (NIH3t3) and humanized embryonic nephrocyte.

Row | Compound | IC50 [mM]
1 | CCC(=O)Oc1ccc(OC)cc1C(C)(C)C [XH2016, 2-tert-butyl-4-methoxyphenol propionate] | 0.148
2 | C=CC(=O)Oc1ccc(OC)cc1C(C)(C)C [XH2017, 2-tert-butyl-4-methoxyphenol acrylate] | 0.56
3 | COc1ccc(OC(=O)c2cc(Cl)nnc2Cl)c(C(C)(C)C)c1 [XH2038-1, (2-tert-butyl-4-methoxyphenol) 3,6-dichloropyridazine-4-formate] | 0.222

tested on: mice embryonic fibroblast (NIH3t3); assay: Cytotoxicity, MTS method, NIH3T3 cell; format: cell-based; conditions: Mus musculus, NIH3T3, MTS method; read-out: IC50(mM) NIH3T3 cell
Text: as §1

Row | Compound | IC50 [mM]
4 | CCC(=O)Oc1ccc(OC)cc1C(C)(C)C [XH2016, 2-tert-butyl-4-methoxyphenol propionate] | 0.0186
5 | C=CC(=O)Oc1ccc(OC)cc1C(C)(C)C [XH2017, 2-tert-butyl-4-methoxyphenol acrylate] | 0.0229
6 | COc1ccc(OC(=O)c2cc(Cl)nnc2Cl)c(C(C)(C)C)c1 [XH2038-1, (2-tert-butyl-4-methoxyphenol) 3,6-dichloropyridazine-4-formate] | 0.236

tested on: humanized embryonic nephrocyte (HEK293 cell); assay: Cytotoxicity, MTS method, HEK293 cell; format: cell-based; conditions: Homo sapiens, HEK293, MTS method; read-out: IC50(mM) HEK293 cell
Text: as §1

Row | Compound | IC50 [mM]
7 | CCC(=O)Oc1ccc(OC)cc1C(C)(C)C [XH2016, 2-tert-butyl-4-methoxyphenol propionate] | 0.065
8 | C=CC(=O)Oc1ccc(OC)cc1C(C)(C)C [XH2017, 2-tert-butyl-4-methoxyphenol acrylate] | 0.008
9 | COc1ccc(OC(=O)c2cc(Cl)nnc2Cl)c(C(C)(C)C)c1 [XH2038-1, (2-tert-butyl-4-methoxyphenol) 3,6-dichloropyridazine-4-formate] | 0.33

tested on: not listed separately; assay: Release experiment of target compound in human plasma; conditions: 37° C., 5 min to 9 h
Procedure: Mobile phase: gradient elution; A: water; B: methanol;
Chromatographic column: CAPCEL PAK MF PH-1;
Detecting instrument: TQ-S; ion source: APCI; ion detection mode: MRM;
Dissolving the target compound with DMSO, then diluting to 5 μg/mL with the normal saline of 0.9%. The human blank plasma after subpackage is preserved at −70° C., unfreezing in a refrigerator at 4° C. when used. Take 20 μL of the blank plasma, adding 20 μL of the target compound solution as above formulated, vortexing for 15 s, and left it in the water bath at 37° C. […] Take the supernatant and inject 10 μL for detection.

Row | Compound | release of BHA in human plasma
10 | COc1ccc(OC(=O)c2ccccc2-c2ccccc2C(=O)Oc2ccc(OC)cc2C(C)(C)C)c(C(C)(C)C)c1 [XH2020, bis(2-tert-butyl-4-methoxyphenol)2,2′-biphenyldicarboxylate] | releases BHA
11 | COc1ccc(OC(=O)Cc2cccc(F)c2)c(C(C)(C)C)c1 [XH2022, (2-tert-butyl-4-methoxyphenol) 3-fluorophenylacetate] | releases BHA
12 | COc1ccc(OC(=O)CCc2ccc(F)cc2)c(C(C)(C)C)c1 [XH2024, (2-tert-butyl-4-methoxyphenol) 3-(4-fluorophenyl)-propionate] | releases BHA
13 | COc1ccc(OC(=O)C2CCCN(C(=O)OC(C)(C)C)C2)c(C(C)(C)C)c1 (stereo not shown) [XH2025, (2-tert-butyl-4-methoxyphenol) N-tert-butoxycarbonylpiperidine-3-formate] | releases BHA
14 | COc1ccc(OC(=O)CCc2cccc([N+](=O)[O-])c2)c(C(C)(C)C)c1 [XH2028, (2-tert-butyl-4-methoxyphenol) 3-(3-nitrophenyl)propionate] | releases BHA
15 | COc1ccc(OC(=O)c2ccc(-c3ccccc3)cc2)c(C(C)(C)C)c1 [XH2029, (2-tert-butyl-4-methoxyphenol) 4-phenylbenzoate] | releases BHA
16 | COc1ccc(OC(=O)c2cnccc2C)c(C(C)(C)C)c1 [XH2030, (2-tert-butyl-4-methoxyphenol) 4-methylpyridine-3-formate] | releases BHA
17 | COc1ccc(OC(=O)c2cnccc2OC)c(C(C)(C)C)c1 [XH2031, (2-tert-butyl-4-methoxyphenol) 4-methoxypyridine-3-formate] | releases BHA
18 | CCCCCCCCCCCCCCCC(=O)Oc1ccc(OC)cc1C(C)(C)C [XH2033, 2-tert-butyl-4-methoxyphenol hexadecylate] | releases BHA
19 | COc1ccc(OC(=O)CNC(=O)OC(C)(C)C)c(C(C)(C)C)c1 [XH2034, N-tert-butoxycarbonylglycine(2-tert-butyl-4-methoxyphenol)ester] | releases BHA
20 | COc1ccc(OC(=O)c2ccc(Cl)c(F)c2)c(C(C)(C)C)c1 [XH2035, (2-tert-butyl-4-methoxyphenol) 3-fluoro-4-chlorobenzoate] | releases BHA
21 | COc1ccc(OC(=O)c2cccc(C#N)c2)c(C(C)(C)C)c1 [XH2036-2, (2-tert-butyl-4-methoxyphenol) 3-cyanobenzoate] | releases BHA
22 | COc1ccc(OC(=O)c2cccnc2Cl)c(C(C)(C)C)c1 [XH2038-4, (2-tert-butyl-4-methoxyphenol) 2-chloro-3-picolinate] | releases BHA
23 | COc1ccc(OC(=O)CCc2ccc(C)cc2)c(C(C)(C)C)c1 [XH2039-1, (2-tert-butyl-4-methoxyphenol) 3-(4-methylphenyl)-propionate] | releases BHA
24 | COc1ccc(OC(=O)C(C)c2ccccc2)c(C(C)(C)C)c1 (stereo not shown) [XH2039-3, (2-tert-butyl-4-methoxyphenol) 2-phenyl propionate] | releases BHA
25 | COc1ccc(OC(=O)C(C)F)c(C(C)(C)C)c1 (stereo not shown) [XH2039-4, (2-tert-butyl-4-methoxyphenol) 2-fluoropropionate] | releases BHA

Row | Compound | release of BHA in human plasma
26 | COc1ccc(OC(=O)CC23CC4CC(CC(C4)C2)C3)c(C(C)(C)C)c1 [XH2040-1, (2-tert-butyl-4-methoxyphenol) adamantaneacetate] | releases BHA
27 | COc1ccc(OC(=O)CCCCCC(C)=O)c(C(C)(C)C)c1 [XH2040-5, (2-tert-butyl-4-methoxyphenol) 7-oxooctanoate] | releases BHA
28 | COc1ccc(OC(=O)c2cc(I)ccc2Br)c(C(C)(C)C)c1 [XH2041-3, (2-tert-butyl-4-methoxyphenol) 2-bromo-5-iodo benzoate] | releases BHA
29 | COc1ccc(OC(=O)c2ccc([N+](=O)[O-])cc2F)c(C(C)(C)C)c1 [XH2041-4, (2-tert-butyl-4-methoxyphenol) 2-fluoro-4-nitryl benzoate] | releases BHA
30 | COc1ccc(OC(=O)C2CCCN(C(=O)OC(C)(C)C)C2)c(C(C)(C)C)c1 (stereo not shown) [XH2041-5, (2-tert-butyl-4-methoxyphenol) N-tert-butoxycarbonylpiperidine-3-formate] | releases BHA
31 | COc1ccc(OC(=O)CCCC(=O)c2ccccc2)c(C(C)(C)C)c1 [XH2043-1, (2-tert-butyl-4-methoxyphenol) 4-benzoyl butyrate] | releases BHA
32 | COc1cc(C=CC(=O)Oc2ccc(OC)cc2C(C)(C)C)cc(OC)c1 [XH2043-2, (2-tert-butyl-4-methoxyphenol) 3,5-dimethoxy phenylacrylate] | releases BHA
33 | COc1ccc(OC(=O)c2cc(Cl)ccn2)c(C(C)(C)C)c1 [XH2043-3, (2-tert-butyl-4-methoxyphenol) 4-chloropyridine-2-formate] | releases BHA
34 | COc1ccc(OC(=O)C2CCCN(C)C2)c(C(C)(C)C)c1 (stereo not shown) [XH2043-4, (2-tert-butyl-4-methoxyphenol) N-methylpiperidine-3-formate] | releases BHA
35 | COc1ccc(OC(=O)CCc2cc(C(C)(C)C)c(O)c(C(C)(C)C)c2)c(C(C)(C)C)c1 [XH2045-2, (2-tert-butyl-4-methoxyphenol) 3-(3,5-di-tert-butyl-4-hydroxy-phenyl)propionate] | releases BHA
36 | (2-tert-butyl-4-methoxyphenol) 1-methylcyclopropyl formate [XH2038-2] | releases BHA
37 | di(2-tert-butyl-4-methoxyphenol) adipate [XH2046-3] | releases BHA
38 | di(2-tert-butyl-4-methoxyphenol) malonate [XH2037] | releases BHA
39 | di(2-tert-butyl-4-methoxyphenol) p-phenylenediacetate [XH2042] | releases BHA
40 | di(2-tert-butyl-4-methoxyphenol) terephthalate [XH2026] | releases BHA

From patent US10786481B2, “Hydroquinone compounds, preparation methods therefor, and use in anti-tumor or immunomodulation therapy” (Biomedical Analysis Center, Academy of Military Medical …, priority 2016, dated 2020)
